Experimental data from EP0183439B1, “Polycyclic compounds, their preparation and use and formulations containing them” (THE WELLCOME FOUNDATION LIMITED, priority 1984, dated 1986).
Structures can show the parent of a compound that is named as a salt.

Key:
P388/0 tumor cells = assay: Lymphocytic Leukemia P388/0 Test; assay type: in vivo, CD2-F₁ mice; details: ratio of median survival time treated/control at optimal dose; i.p. days 1, 5, 9; 10⁶ P388/0 cells i.p. on day 0
Text: Methods for evaluating the antitumor activity of these compounds are essentially those used in the Tumor Panel by the Development Therapeutics Program, Division of Cancer Treatment, National Cancer Institute, A. Goldin, et al., Methods in Cancer Research, Vol. XVI, p. 165, Academic Press (1979). Some modifications, in dose level and schedule have been made to increase the testing efficiency.
(§1) CD2-F₁ mice, of the same sex, weighing within a 3 g range surrounding 20 g, are used for this test. Control and test animals are injected intraperitoneally with a suspension of 10⁶ viable P388/0 tumor cells on day 0. In each test several dose levels which bracket the LD₂₀ for the compound are evaluated; each dose level group contains 6 animals. The test compounds are prepared either in physiologic saline containing 0.05% Tween 80 or distilled water containing 5% dextrose and are administered intraperitoneally on days, 1, 5, and 9 relative to tumor implant.
Doses are on a mg/kg basis according to individual animals' body weights. The day of death for each animal is recorded, the median identified for each group and the ratios of median survival time for treated (T)/control (C) groups are calculated. The criterion for activity is T/C x 100 120%.

[1] = LD20 in the P388/0 test (toxicity in mice); assay type: in vivo
Protocol: as §1

[2] = intraperitoneally on days 1, 5 and 9

CC(CO)(CO)NCc1ccc2sc3ccccc3c2c1.Cl [Example 2, 2-[(2-Dibenzothiophenylmethyl)amino]-2-methyl-1,3-propanediol hydrochloride]
T/C x 100% (Exluding 30 Day Survivors) (P388/0 tumor cells): +130%
LD₂₀ [1, 2]: 200 mg/kg

CC(CO)(CO)NCc1cccc2c1sc1ccccc12.Cl [Example 3, 2-[(4-Dibenzothiophenylmethyl)amino]-2-methyl-1,3-propanediol hydrochloride]
T/C x 100% (Exluding 30 Day Survivors) (P388/0 tumor cells): +155%
LD₂₀ [1, 2]: 200 mg/kg

CC(CO)(CO)NCc1c2ccccc2nc2ccccc12 [Example 13, 2-[(9-Acridinylmethyl)amino]-2-methyl-1,3-propanediol dihydochoride]
T/C x 100% (Exluding 30 Day Survivors) (P388/0 tumor cells): +130%
LD₂₀ ([1]; mouse, in vivo, ip): 540 mg/kg

CC(CO)(CO)NCc1cccc2oc3ccccc3c12 [Example 4B, 2-[(1-Dibenzofuranylmethyl)amino]-2-methyl-1,3-propanediol hydrochloride]
T/C x 100% (Exluding 30 Day Survivors) (P388/0 tumor cells): +140%
LD₂₀ [1, 2]: 200 mg/kg

CC(CO)(CO)NCc1c2ccccc2cc2sccc12 [Example 6B, 2-[(Naphtho[2,3-b]thiophen-4-ylmethyl)amino]-2-methyl-1,3-propanediol hydrochloride 1/20 hydrate]
T/C x 100% (Exluding 30 Day Survivors) (P388/0 tumor cells): +125%
LD₂₀ ([1]; mouse, in vivo, ip): 150 mg/kg

CC(CO)(CO)NCc1ccc2oc3ccccc3c2c1.Cl [Example 5, 2-[(2-Dibenzofuranylmethyl)amino]-2-methyl-1,3-propanediol hydrochloride]
T/C x 100% (Exluding 30 Day Survivors) (P388/0 tumor cells): +120%
LD₂₀ [1, 2]: 225 mg/kg

CC(CO)(CO)NCc1cc2ccsc2c2ccccc12 [Example 10C, 2-Methyl-2-[(naphtho[1,2-b]thiophene-5-ylmethyl)amino]-1,3-propanediol]
T/C x 100% (Exluding 30 Day Survivors) (P388/0 tumor cells): +125%
LD₂₀ [1, 2]: 115 mg/kg

CC(CO)(CO)NCc1cccc2sc3ccccc3c12 [Example 1, 2-[(1-Dibenzothiophenylmethyl)amino]-2-methyl-1,3-propanediol hydrochloride]
T/C x 100% (Exluding 30 Day Survivors) (P388/0 tumor cells): +140%
LD₂₀ ([1]; mouse, in vivo, ip): 240 mg/kg
